According to PubChem BioAssay AID1259407 (Chemical Carcinogenesis Research Information System (CCRIS), 2018):
Calls of active or inactive are those of the source. The rule behind the calls is not given here.

Test system: CCRIS mutagenicity, Ames/micronucleus/aberration tests
Assay: CCRIS mutagenicity studies
[1] = Test System: AMES SALMONELLA TYPHIMURIUM, Strain/Indicator: TA98, Metabolic Activation: NONE, Method: PREINCUBATION
[2] = Test System: AMES SALMONELLA TYPHIMURIUM, Strain/Indicator: TA98, Metabolic Activation: NONE, Method: STANDARD PLATE
[3] = Test System: AMES SALMONELLA TYPHIMURIUM, Strain/Indicator: TA100, Metabolic Activation: NONE, Method: PREINCUBATION
[4] = Test System: AMES SALMONELLA TYPHIMURIUM, Strain/Indicator: TA100, Metabolic Activation: NONE, Method: STANDARD PLATE
[5] = Test System: AMES SALMONELLA TYPHIMURIUM, Strain/Indicator: TA97, Metabolic Activation: NONE, Method: PREINCUBATION

Measured: mutagenic call

O=CC(=O)c1ccccc1
active: Test System: AMES SALMONELLA TYPHIMURIUM, Strain/Indicator: TA98, Metabolic Activation: HAMSTER, LIVER, S-9, AROCLOR 1254, Method: STANDARD PLATE active; positive | [2] active; positive | Test System: AMES SALMONELLA TYPHIMURIUM, Strain/Indicator: TA98, Metabolic Activation: RAT, LIVER, S-9, AROCLOR 1254, Method: STANDARD PLATE active; positive | Test System: AMES SALMONELLA TYPHIMURIUM, Strain/Indicator: TA100, Metabolic Activation: HAMSTER, LIVER, S-9, AROCLOR 1254, Method: STANDARD PLATE active; positive | [3] active; positive | [4] active; positive | Test System: AMES SALMONELLA TYPHIMURIUM, Strain/Indicator: TA100, Metabolic Activation: RAT, LIVER, S-9, AROCLOR 1254, Method: STANDARD PLATE active; positive | Test System: MOUSE LYMPHOMA, Strain/Indicator: L5178Y (TK+/TK-), Metabolic Activation: NONE, Method: SUSPENSION/PLATE active; positive | Test System: Mouse lymphoma, Strain/Indicator: L5178Y (tk+/tk-), Metabolic Activation: None, Method: Suspension/plate active; positive
inactive: [1] inactive; negative | Test System: AMES SALMONELLA TYPHIMURIUM, Strain/Indicator: TA98, Metabolic Activation: RAT, LIVER, S-9, PCB, Method: PREINCUBATION inactive; negative | Test System: AMES SALMONELLA TYPHIMURIUM, Strain/Indicator: TA100, Metabolic Activation: RAT, LIVER, S-9, PCB, Method: PREINCUBATION inactive; negative | Test System: Mouse lymphoma, Strain/Indicator: L5178Y (tk+/tk-), Metabolic Activation: Rat, Liver, S-9, Aroclor 1254, Method: Suspension/plate inactive; negative

O[C@@H]1C=Cc2c(cc3ccc4cccc5c6ccccc6c2c3c45)[C@H]1O
active: Test System: CHINESE HAMSTER V-79, Strain/Indicator: V-79 (HPRT)/6-THIOGUANINE, Metabolic Activation: HUMAN MAMMARY CARCINOMA MCF-7 CELLS active; positive | Test System: CHINESE HAMSTER V-79, Strain/Indicator: V-79, Metabolic Activation: RAT, LIVER, S-9, AROCLOR 1254 active; positive

O=c1ccn([C@@H]2O[C@H](COP(=O)(O)O)[C@@H](O)[C@H]2O)c(=O)[nH]1
inactive: [5] inactive; negative | Test System: AMES SALMONELLA TYPHIMURIUM, Strain/Indicator: TA97, Metabolic Activation: RAT, LIVER, S-9, AROCLOR 1254, Method: PREINCUBATION inactive; negative | Test System: AMES SALMONELLA TYPHIMURIUM, Strain/Indicator: TA102, Metabolic Activation: NONE, Method: PREINCUBATION inactive; negative | Test System: AMES SALMONELLA TYPHIMURIUM, Strain/Indicator: TA102, Metabolic Activation: RAT, LIVER, S-9, AROCLOR 1254, Method: PREINCUBATION inactive; negative

O=C(Nc1cccc(Cl)c1)c1csc([N+](=O)[O-])c1
active: [2] active; positive | [4] active; positive

Nc1ccc2c(c1)-c1cccc3cccc-2c13
inactive: Test System: AMES SALMONELLA TYPHIMURIUM, Strain/Indicator: TA1535, Metabolic Activation: RAT, LIVER, S-9, AROCLOR 1254 (2%), Method: STANDARD PLATE inactive; negative
active: Test System: AMES SALMONELLA TYPHIMURIUM, Strain/Indicator: TA98, Metabolic Activation: RAT, LIVER, S-9, AROCLOR 1254 (2 OR 4%), Method: STANDARD PLATE active; positive | Test System: AMES SALMONELLA TYPHIMURIUM, Strain/Indicator: TA100, Metabolic Activation: RAT, LIVER, S-9, AROCLOR 1254 (2%), Method: STANDARD PLATE active; positive | Test System: AMES SALMONELLA TYPHIMURIUM, Strain/Indicator: TA1537, Metabolic Activation: RAT, LIVER, S-9, AROCLOR 1254 (2%), Method: STANDARD PLATE active; positive

CN(C)c1ccc(N=Nc2ccc(C=O)cc2)cc1
active: Test System: AMES SALMONELLA TYPHIMURIUM, Strain/Indicator: TA98, Metabolic Activation: RAT, LIVER, S-9, POLYCHLORINATED BIPHENYLS, Method: PREINCUBATION active; positive | Test System: AMES SALMONELLA TYPHIMURIUM, Strain/Indicator: TA100, Metabolic Activation: RAT, LIVER, S-9, POLYCHLORINATED BIPHENYLS, Method: PREINCUBATION active; positive

Oc1cc(O)cc(/C=C/c2ccc(O)c(O)c2)c1
inactive: Test System: Ames Salmonella typhimurium, Strain/Indicator: TA102, Metabolic Activation: None, Method: Preincubation inactive; negative | Test System: Ames Salmonella typhimurium, Strain/Indicator: TA102, Metabolic Activation: Rat, Liver, S-9, Aroclor 1254 in 0.154 M KCl, Method: Preincubation inactive; negative

O=C1CN(/N=C/C=C/c2ccc([N+](=O)[O-])o2)C(=O)N1
active: Test System: AMES SALMONELLA TYPHIMURIUM, Strain/Indicator: TA97, Metabolic Activation: NONE, Method: STANDARD PLATE active; positive | [2] active; positive | [4] active; positive | Test System: E. COLI WP2, Strain/Indicator: WP2, Metabolic Activation: NONE, Method: SPOT active; positive

CC(Cl)(Cl)[N+](=O)[O-]
inactive: Test System: AMES SALMONELLA TYPHIMURIUM, Strain/Indicator: TA98, Metabolic Activation: HAMSTER, LIVER, S-9, AROCLOR 1254 (10%), Method: PREINCUBATION inactive; negative | [1] inactive; negative | Test System: AMES SALMONELLA TYPHIMURIUM, Strain/Indicator: TA98, Metabolic Activation: RAT, LIVER, S-9, AROCLOR 1254 (10%), Method: PREINCUBATION inactive; negative | [3] inactive; negative | Test System: AMES SALMONELLA TYPHIMURIUM, Strain/Indicator: TA1535, Metabolic Activation: HAMSTER, LIVER, S-9, AROCLOR 1254 (10%), Method: PREINCUBATION inactive; negative | Test System: AMES SALMONELLA TYPHIMURIUM, Strain/Indicator: TA1535, Metabolic Activation: NONE, Method: PREINCUBATION inactive; negative | Test System: AMES SALMONELLA TYPHIMURIUM, Strain/Indicator: TA1535, Metabolic Activation: RAT, LIVER, S-9, AROCLOR 1254 (10%), Method: PREINCUBATION inactive; negative
active: Test System: AMES SALMONELLA TYPHIMURIUM, Strain/Indicator: TA97, Metabolic Activation: HAMSTER, LIVER, S-9, AROCLOR 1254 (10%), Method: PREINCUBATION active; positive | [5] active; positive | Test System: AMES SALMONELLA TYPHIMURIUM, Strain/Indicator: TA97, Metabolic Activation: RAT, LIVER, S-9, AROCLOR 1254 (10%), Method: PREINCUBATION active; positive | Test System: AMES SALMONELLA TYPHIMURIUM, Strain/Indicator: TA100, Metabolic Activation: HAMSTER, LIVER, S-9, AROCLOR 1254 (10%), Method: PREINCUBATION active; positive | Test System: AMES SALMONELLA TYPHIMURIUM, Strain/Indicator: TA100, Metabolic Activation: RAT, LIVER, S-9, AROCLOR 1254 (10%), Method: PREINCUBATION active; positive
